Measurements published in ChEMBL document CHEMBL1201862, “PubChem BioAssay data set” (2004).
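Grown in 96-well plates, cells were treated for 48 hours with each compound at five concentrations. Insufficient inhibition: endpoint recorded as highest concentration tested. Here, GI50 denotes the concentration required for 50% inhibition of growth.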 The source made the active and inactive calls. No stated cut-off is given here; in the data, active = GI50 up to about 1.1 µM and inactive = higher.

What was measured:
Assay in all cases: NCI-60 cell line screen, 48 h
[1] = system: A498
[2] = system: IGROV-1
[3] = system: MDA-N
[4] = system: OVCAR-5
[5] = system: HOP-92
[6] = system: NCI-H23
[7] = system: UO-31
[8] = system: SW-620
[9] = system: HCT-15
[10] = system: UACC-62
[11] = system: EKVX
[12] = system: SF-268
[13] = system: RXF 393
[14] = system: NCI-H522
[15] = system: KM12
[16] = system: SF-539
[17] = system: OVCAR-4
[18] = system: U-251
[19] = system: M14
[20] = system: MCF7
[21] = system: CAKI-1
[22] = system: MOLT-4
[23] = system: SF-295
[24] = system: LOX IMVI
[25] = system: HCT-116
[26] = system: Malme-3M
[27] = system: MDA-MB-435
[28] = system: SK-MEL-5
[29] = system: HL-60
[30] = system: DU-145
[31] = system: SK-MEL-28
[32] = system: HOP-62
[33] = system: A549
[34] = system: ACHN
[35] = system: PC-3
[36] = system: COLO 205
[37] = system: MDA-MB-231
[38] = system: HT-29
[39] = system: OVCAR-8
[40] = system: 786-0
[41] = system: TK-10
[42] = system: UACC-257
[43] = system: SNB-19
[44] = system: NCI-H226
[45] = system: T47D
[46] = system: SK-MEL-2
[47] = system: SN12C
[48] = system: NCI/ADR-RES
[49] = system: SK-OV-3
[50] = system: CCRF-CEM
[51] = system: Hs-578T
[52] = system: SNB-75
[53] = system: SR
[54] = system: K562
[55] = system: OVCAR-3
[56] = system: RPMI-8226
[57] = system: NCI-H460

Structure (SMILES): Nc1ncnc2c(C3OC(CO)C(O)C3O)nsc12 (stereo not given)
- GI50 [1]: < 0.0115 µM (active)

Structure (SMILES): COC1C(N(C)C)=C(c2ccccc2)C(=O)N2CCc3ccccc3C12 (stereo not given)
- GI50 [2]: > 100 µM (inactive)
- GI50 [3]: > 100 µM (inactive)
- GI50 [4]: > 100 µM (inactive)
- GI50 [5]: > 100 µM (inactive)
- GI50 [6]: > 100 µM (inactive)
- GI50 [1]: > 100 µM (inactive)
- GI50 [7]: > 100 µM (inactive)
- GI50 [8]: > 100 µM (inactive)
- GI50 [9]: > 100 µM
- GI50 [10]: > 100 µM (inactive)
- GI50 [11]: > 100 µM (inactive)
- GI50 [12]: > 100 µM (inactive)
- GI50 [13]: > 100 µM (inactive)
- GI50 [14]: > 100 µM (inactive)
- GI50 [15]: > 100 µM (inactive)
- GI50 [16]: > 100 µM (inactive)
- GI50 [17]: > 100 µM (inactive)
- GI50 [18]: > 100 µM (inactive)
- GI50 [19]: > 100 µM (inactive)
- GI50 [20]: > 100 µM (inactive)
- GI50 [21]: > 100 µM (inactive)
- GI50 [22]: 79.1 µM (inactive)
- GI50 [23]: > 100 µM (inactive)
- GI50 [24]: > 100 µM (inactive)
- GI50 [25]: > 100 µM (inactive)
- GI50 [26]: > 100 µM (inactive)
- GI50 [27]: > 100 µM (inactive)
- GI50 [28]: > 100 µM (inactive)
- GI50 [29]: > 100 µM (inactive)
- GI50 [30]: > 100 µM (inactive)
- GI50 [31]: > 100 µM (inactive)
- GI50 [32]: > 100 µM (inactive)
- GI50 [33]: > 100 µM (inactive)
- GI50 [34]: > 100 µM (inactive)
- GI50 [35]: > 100 µM (inactive)
- GI50 [36]: > 100 µM (inactive)
- GI50 [37]: > 100 µM (inactive)
- GI50 [38]: > 100 µM (inactive)
- GI50 [39]: > 100 µM (inactive)
- GI50 [40]: > 100 µM (inactive)
- GI50 [41]: > 100 µM (inactive)
- GI50 [42]: > 100 µM (inactive)
- GI50 [43]: > 100 µM (inactive)
- GI50 [44]: > 100 µM (inactive)
- GI50 [45]: > 100 µM (inactive)
- GI50 [46]: > 100 µM (inactive)
- GI50 [47]: > 100 µM (inactive)
- GI50 [48]: > 100 µM (inactive)
- GI50 [49]: > 100 µM (inactive)
- GI50 [50]: > 100 µM (inactive)
- GI50 [51]: > 100 µM (inactive)
- GI50 [52]: > 100 µM (inactive)

Structure (SMILES): Oc1cn(-c2ccc(Cl)cc2)nc1-c1n[nH]c(=S)n1-c1ccccc1
- GI50 [2]: 4.6 µM (inactive)
- GI50 [4]: 24.2 µM (inactive)
- GI50 [53]: 2.97 µM (inactive)
- GI50 [5]: > 100 µM (inactive)
- GI50 [6]: 10.5 µM (inactive)
- GI50 [1]: 14 µM (inactive)
- GI50 [7]: 14.2 µM (inactive)
- GI50 [8]: 5.07 µM (inactive)
- GI50 [54]: 3.95 µM (inactive)
- GI50 [9]: 3.36 µM
- GI50 [10]: 11.4 µM (inactive)
- GI50 [11]: 27.2 µM (inactive)
- GI50 [12]: 10.4 µM (inactive)
- GI50 [13]: 11.1 µM (inactive)
- GI50 [14]: 5.01 µM (inactive)
- GI50 [15]: 4.36 µM (inactive)
- GI50 [16]: 5.92 µM (inactive)
- GI50 [17]: 52.6 µM (inactive)
- GI50 [18]: 10.8 µM (inactive)
- GI50 [55]: 2.51 µM (inactive)
- GI50 [19]: 7 µM (inactive)
- GI50 [20]: 4.42 µM (inactive)
- GI50 [21]: 8.09 µM (inactive)
- GI50 [22]: 62.7 µM (inactive)
- GI50 [23]: 4.94 µM (inactive)
- GI50 [56]: 5.46 µM (inactive)
- GI50 [25]: 6.37 µM (inactive)
- GI50 [26]: 16.2 µM (inactive)
- GI50 [27]: 1.95 µM (inactive)
- GI50 [28]: 4.19 µM (inactive)
- GI50 [29]: 4.13 µM (inactive)
- GI50 [30]: 22.3 µM (inactive)
- GI50 [31]: 16.8 µM (inactive)
- GI50 [32]: 10 µM (inactive)
- GI50 [33]: 14.1 µM (inactive)
- GI50 [34]: 18.8 µM (inactive)
- GI50 [35]: 27.5 µM (inactive)
- GI50 [36]: 23 µM (inactive)
- GI50 [37]: 57.5 µM (inactive)
- GI50 [38]: 19.8 µM (inactive)
- GI50 [39]: 14.9 µM (inactive)
- GI50 [40]: 11.6 µM (inactive)
- GI50 [41]: 22 µM (inactive)
- GI50 [42]: 20.7 µM (inactive)
- GI50 [43]: 16.8 µM (inactive)
- GI50 [44]: 6.22 µM (inactive)
- GI50 [45]: 19.5 µM (inactive)
- GI50 [46]: 22.4 µM (inactive)
- GI50 [47]: 17.8 µM (inactive)
- GI50 [48]: 3.79 µM (inactive)
- GI50 [49]: 17.2 µM (inactive)
- GI50 [51]: 7.64 µM (inactive)
- GI50 [57]: 10.6 µM (inactive)
- GI50 [52]: 21.1 µM (inactive)

Structure (SMILES): Nc1ccc(S(=O)(=O)Nc2ncccn2)cc1 [SULFADIAZINE, SILVER]
- GI50 [54]: 2.12 µM (inactive)
- GI50 [14]: 1.77 µM (inactive)
- GI50 [50]: 1.82 µM (inactive)
